{"source": "patent US20220372448A1", "about": "“CELL LINE AND PRODUCING METHOD THEREOF” (University of Yamanashi, priority 2021, published 2022)", "system": "VeroE6/Rep #3 cells", "test": "MTS assay for cell survival rate of VeroE6/Rep #3 cells", "details": "72 hours, EIDD-2801 20 μM, library compounds 10 μM"}
{"smiles": "CC(C)C(=O)OC[C@H]1O[C@@H](n2ccc(NO)nc2=O)[C@H](O)[C@@H]1O", "note": "[EIDD-2801, molnupiravir]", "values": [{"measurement": "cell proliferation / cell survival (MTS assay) compared with DMSO negative control", "result": "a decrease in cell proliferation was not observed"}]}
